Here are results for 14 molecules from US10550089B2, “Inhibitors of protease-activated receptor-2” (Heptares Therapeutics Limited, priority 2016, dated 2020).

Molecules are shown by their SMILES. Some results are limits rather than exact numbers.

What is called IC50 is the concentration at which inhibition is half-maximal.

In experiment [1] the target is T1, PAR2 (Homo sapiens (Human), UniProt P55085). Briefly: IP-One HTRF assay for PAR2 antagonist activity (IP1 production). It counts as cell-based. The protocol:
Protocol for Testing Compounds for PAR2 Antagonist Activity Using an IP-One HTRF Assay
Inositol monophosphate (IP1) production were measured in 1321N1 cells stably expressing human PAR2 using an IP-One HTRF assay kit (Cisbio). […] After 60 min at 37° C. cells were lysed and IP1 concentrations were detected according to the manufacturers protocol (Cisbio). Data were normalized to IP1 concentrations using a IP1 standard curve according to the manufacturers protocol (Cisbio).
Background: Time-resolved FRET reads energy transfer from a long-lived donor to a nearby acceptor.

The target of experiment [2] is T1, PAR2. Description: Trypsin activated FLPR Ca2+ mobilization assay for PAR2 antagonist activity. It counts as cell-based. The protocol: Trypin Activated FLPR Assay:
Protocol for Testing Compounds for PAR2 Antagonist Activity Using a Ca2+ Mobilization Assay
Calcium mobilization was measured using 1321N1 cells stably expressing human PAR2. Cells were seeded in 384-well plates at 4,000 cells per well in 20 μl DMEM with Glutamax supplemented with 10% FBS and incubated for 18-24 h at 37° C., 5% CO2 and 95% humidity. […] The addition was done using a FLIPR^TETRA (384-well head, Molecular Devices) and the response was read simultaneously to detect any agonist activity.
On the technique in general: Calcium assays in cells follow changes in intracellular calcium, usually with a dye or a luminescent sensor.

The target of experiment [3] is T1, PAR2. Briefly: FLPR dissociation rate assay (PAR2 mean residence time). It counts as cell-based. The following applies: cells washed after compound incubation (60-240 min); peptide agonist SLIGLR-NH2; read-out: FLPR Residence time t1/2. From the text:
FLPR Dissociation Rate Assay: Protocol for Testing Compounds for PAR2 Mean Residence Time
The peptide agonist SLIGLR-NH2 (ECso) was used in place of trypsin.

A further experiment deals with PAR1 (Homo sapiens (Human), UniProt P25116). Description: β-arrestin type assay by DiscoverX against PAR1.
Sequence of PAR1 (P25116 22-425): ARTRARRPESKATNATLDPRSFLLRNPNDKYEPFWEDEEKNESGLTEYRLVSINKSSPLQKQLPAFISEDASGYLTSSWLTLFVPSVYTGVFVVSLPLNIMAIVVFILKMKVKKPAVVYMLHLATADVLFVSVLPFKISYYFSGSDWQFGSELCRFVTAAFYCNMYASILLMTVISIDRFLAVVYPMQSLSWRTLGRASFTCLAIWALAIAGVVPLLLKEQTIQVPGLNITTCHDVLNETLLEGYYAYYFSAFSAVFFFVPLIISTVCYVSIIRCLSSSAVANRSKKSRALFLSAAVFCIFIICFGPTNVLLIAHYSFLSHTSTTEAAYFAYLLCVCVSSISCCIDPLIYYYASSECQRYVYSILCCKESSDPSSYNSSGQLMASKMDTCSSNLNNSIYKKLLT
The mark [4] stands for this setting: hPAR2 IPpone IC50 (μM), 1321N1 cells stably expressing human PAR2, agonist SLIGRL-NH2.
[5] abbreviates: hPAR2 FLPR (Trypsin) IC50 (μM), 1321N1 cells stably expressing human PAR2, agonist Trypsin, Vorapaxar present to block PAR1.
The mark [6] stands for this setting: 1321N1 cells stably expressing human PAR2, agonist SLIGRL-NH2, read-out: hPAR2 IPpone IC50.
Setting [7] is: 1321N1 cells stably expressing human PAR2, agonist Trypsin, Vorapaxar present to block PAR1, read-out: hPAR2 FLPR (Trypsin) IC50.

T1 sequence (P55085 26-397): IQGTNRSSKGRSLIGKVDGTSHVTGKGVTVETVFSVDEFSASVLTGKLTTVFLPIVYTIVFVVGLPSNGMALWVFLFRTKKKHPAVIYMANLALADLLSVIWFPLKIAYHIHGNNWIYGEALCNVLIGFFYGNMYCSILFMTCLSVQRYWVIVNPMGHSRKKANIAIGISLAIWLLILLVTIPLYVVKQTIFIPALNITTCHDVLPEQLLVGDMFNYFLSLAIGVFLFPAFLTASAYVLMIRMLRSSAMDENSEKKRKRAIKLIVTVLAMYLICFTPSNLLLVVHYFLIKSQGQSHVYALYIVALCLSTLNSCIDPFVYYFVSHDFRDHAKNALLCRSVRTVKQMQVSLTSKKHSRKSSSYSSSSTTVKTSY

For `OC(c1ncc[nH]1)c1ccc(F)cc1N1CCCC1` (single isomer, unassigned) [Example 16, (4-Fluoro-2-(pyrrolidin-1-yl)phenyl)(1H-imidazol-2-yl)methanol], the values for the IC50 on PAR2 [1] (hPAR2 IPpone IC50 (μM)) and at PAR2 [2] (hPAR2 FLPR (Trypsin) IC50 (μM)) were 0.96 µM and 10.1 µM, respectively. Also, at PAR2 [3], the residence time stood at 161 min.
Take `CCc1ccc2c(F)ccc(C(O)c3ncc[nH]3)n12` (single isomer, unassigned) [Example 35, (3-Ethyl-8-fluoroindolizin-5-yl)(1H-imidazol-2-yl)methanol]: the IC50 on PAR1 is over 50 µM.
As to `CCc1coc2c(F)ccc([C@H](O)c3ncc[nH]3)c12` (single isomer, unassigned) [Example 42], the IC50 was determined as 0.33 µM at PAR2 [1] (setting [4]) and 3.09 µM on PAR2 [2] (setting [5]). The residence time on PAR2 [3] came to 119 min.
As to `CCCc1cc(F)ccc1[C@H](O)c1ncc[nH]1` [Example 3, (S)-(4-Fluoro-2-propylphenyl)(1H-imidazol-2-yl)methanol], the results for the IC50 at PAR2 [1] (setting [6]), at PAR1 and at PAR2 [2] (setting [7]) were 1.29 µM, over 50 µM and 3.92 µM, respectively. The residence time at PAR2 [3] was 62 min.
As to `OC(c1ncc[nH]1)c1ccc(F)cc1C12CCCC1C2` (stereo not shown) [Example 31, (2-(Bicyclo[3.1.0]hexan-1-yl)-4-fluorophenyl)(1H-imidazol-2-yl)methanol], the IC50 on PAR2 [1] (setting [6]) is 4.32 µM; at PAR2 [2] (setting [7]) it was over 41 µM.
In the same order, the values of `OC(c1ncc[nH]1)c1ccc(F)cc1-c1cocn1` (stereo not shown) [Example 32, (4-Fluoro-2-(oxazol-4-yl)phenyl)(1H-imidazol-2-yl)methanol] are 14.3 µM and 30.6 µM.
Consider `OC(c1ncc[nH]1)c1ccc(F)cc1-c1cscn1` (stereo not shown) [Example 33, (4-Fluoro-2-(thiazol-4-yl)phenyl)(1H-imidazol-2-yl)methanol], for which the results for the IC50 on PAR2 [1] (hPAR2 IPpone IC50 (μM)) and on PAR2 [2] (hPAR2 FLPR (Trypsin) IC50 (μM)) were 3.6 µM and 16.8 µM, respectively.
With `Cc1ccc2c(F)ccc(C(O)c3ncc[nH]3)n12` (stereo not shown) [Example 37, (8-Fluoro-3-methylindolizin-5-yl)(1H-imidazol-2-yl)methanol], the IC50 on PAR2 [1] (setting [6]) is 0.97 µM; at PAR2 [2] (setting [7]), 3.27 µM.
With `CC(C)c1ccc2c(F)ccc(C(O)c3ncc[nH]3)n12` (stereo not shown) [Example 38, (8-Fluoro-3-isopropylindolizin-5-yl)(1H-imidazol-2-yl)methanol], the IC50 at PAR2 [1] (setting [4]) is 1.91 µM; at PAR2 [2] (setting [5]), 13.9 µM.
In the same order, the values of `CCc1coc2c(F)ccc(C(O)c3ncc[nH]3)c12` (stereo not shown) [Example 40, (3-Ethyl-7-fluorobenzofuran-4-yl)(1H-imidazol-2-yl)methanol] are 0.75 µM and 4.9 µM.
Consider `OC(c1ncc[nH]1)c1ccc(F)c2occ(C3CC3)c12` (stereo not shown) [Example 43, (3-Cyclopropyl-7-fluorobenzofuran-4-yl)(1H-imidazol-2-yl)methanol], for which the figures for the IC50 at PAR2 [1] (setting [6]) and on PAR2 [2] (setting [7]) were 0.86 µM and 4.58 µM, respectively.
In the same order, the values of `Cc1coc2c(F)ccc(C(O)c3ncc[nH]3)c12` (stereo not shown) [Example 52, (7-Fluoro-3-methylbenzofuran-4-yl)(1H-imidazol-2-yl)methanol] are 0.97 µM and 3.27 µM.
On the same counts, the results for `CCn1ccc2c(F)ccc(C(O)c3ncc[nH]3)c21` (stereo not shown) [Example 57, (1-Ethyl-4-fluoro-1H-indol-7-yl)(1H-imidazol-2-yl)methanol] are 1.65 µM and 9.03 µM.
Turning to `OC(c1ncc[nH]1)c1ccc(F)c2ccc(Cl)n12` (stereo not shown) [Example 61, (3-Chloro-8-fluoro-indolizin-5-yl)-(1H-imidazol-2-yl)methanol], the IC50 at PAR2 [1] (setting [6]) was determined as 1.9 µM; on PAR2 [2] (setting [7]) it was 3.1 µM.
